Measured values taken from the OligoGym collection.
HELM strings list units from the 5' end as sugar, base in round brackets, then linkage (d deoxyribose, r ribose, m 2'-O-methyl, p phosphodiester). Strings are as the collection lists them; they lack the last nucleoside at the 3' end of the tested compound. [moe] = 2'-O-(2-methoxyethyl) (MOE); [sp] = phosphorothioate linkage; [m5C] = 5-methylcytosine

The substances below were run against ATXN2 (assay: mouse, dose not given). Settings: ASO.
For “RNA1{[moe]([m5C])[sp].[moe](T)p.[moe](T)p.[moe]([m5C])p.[moe](T)p.d([m5C])[sp].d(T)[sp].d(A)[sp].d(T)[sp].d(T)[sp].d(T)[sp].d([m5C])[sp].d(T)[sp].d(T)[sp].d(T)[sp].[moe](G)p.[moe](T)p.[moe]([m5C])[sp].[moe]([m5C])}$$$$ (last 3' nucleoside missing)”, the 3 h FOB score was 1 score 0-7.
“RNA1{[moe]([m5C])[sp].[moe](T)p.[moe]([m5C])p.[moe](T)p.[moe](A)[sp].d(T)[sp].d(T)[sp].d(T)[sp].d([m5C])[sp].d(T)[sp].d(T)[sp].d(T)[sp].d(G)[sp].[moe](T)p.[moe]([m5C])p.[moe]([m5C])[sp].[moe](A)}$$$$ (last 3' nucleoside missing)” gave a 3 h FOB score of 3.5 score 0-7.
Work on “RNA1{[moe]([m5C])[sp].[moe](T)p.[moe]([m5C])p.[moe](T)p.[moe](A)p.d(T)[sp].d(T)[sp].d(T)[sp].d([m5C])[sp].d(T)[sp].d(T)[sp].d(T)[sp].d(G)[sp].d(T)[sp].d([m5C])[sp].[moe]([m5C])p.[moe](A)p.[moe](G)[sp].[moe](G)}$$$$ (last 3' nucleoside missing)” yielded a 3 h FOB score of 3.5 score 0-7.
In the case of “RNA1{[moe]([m5C])[sp].[moe](T)p.[moe]([m5C])p.[moe](T)p.[moe]([m5C])[sp].d([m5C])[sp].d(A)[sp].d(T)[sp].d(T)[sp].d(A)[sp].d(T)[sp].d(T)[sp].d(T)[sp].[moe]([m5C])p.[moe](T)p.[moe](T)[sp].[moe]([m5C])}$$$$ (last 3' nucleoside missing)”, the 3 h FOB score is reported as 0 score 0-7.
With “RNA1{[moe]([m5C])[sp].[moe](T)p.[moe]([m5C])p.[moe](T)p.[moe]([m5C])[sp].d([m5C])[sp].d(A)[sp].d(T)[sp].d(T)[sp].d(A)[sp].d(T)[sp].d(T)[sp].d(T)[sp].d([m5C])[sp].d(T)[sp].[moe](T)p.[moe]([m5C])p.[moe](A)[sp].[moe]([m5C])}$$$$ (last 3' nucleoside missing)” the 3 h FOB score was 5.75 score 0-7.
In the case of “RNA1{[moe]([m5C])[sp].[moe](T)p.[moe]([m5C])p.[moe](T)p.[moe]([m5C])p.[moe]([m5C])p.d(A)[sp].d(T)[sp].d(T)[sp].d(A)[sp].d(T)[sp].d(T)[sp].d(T)[sp].d([m5C])[sp].d(T)[sp].d(T)[sp].[moe]([m5C])p.[moe](A)[sp].[moe]([m5C])}$$$$ (last 3' nucleoside missing)”, the 3 h FOB score is reported as 2 score 0-7.
“RNA1{[moe]([m5C])[sp].[moe](T)p.[moe]([m5C])p.[moe](T)p.[moe]([m5C])p.d([m5C])[sp].d(A)[sp].d(T)[sp].d(T)[sp].d(A)[sp].d(T)[sp].d(T)[sp].d(T)[sp].d([m5C])[sp].d(T)[sp].[moe](T)p.[moe]([m5C])p.[moe](A)[sp].[moe]([m5C])}$$$$ (last 3' nucleoside missing)” showed a 3 h FOB score of 4 score 0-7.
In the case of “RNA1{[moe]([m5C])[sp].[moe](T)p.[moe]([m5C])p.[moe](T)p.d([m5C])[sp].d([m5C])[sp].d(A)[sp].d(T)[sp].d(T)[sp].d(A)[sp].d(T)[sp].d(T)[sp].d(T)[sp].d([m5C])[sp].[moe](T)p.[moe](T)p.[moe]([m5C])p.[moe](A)[sp].[moe]([m5C])}$$$$ (last 3' nucleoside missing)”, the 3 h FOB score is reported as 3 score 0-7.
“RNA1{[moe]([m5C])[sp].[moe](T)p.[moe]([m5C])p.[moe]([m5C])p.[moe](A)[sp].d(T)[sp].d(T)[sp].d(A)[sp].d(T)[sp].d(T)[sp].d(T)[sp].d([m5C])[sp].d(T)[sp].[moe](T)p.[moe]([m5C])p.[moe](A)[sp].[moe]([m5C])}$$$$ (last 3' nucleoside missing)” was tested, and the 3 h FOB score was 3.5 score 0-7.
“RNA1{[moe]([m5C])[sp].[moe](T)p.[moe]([m5C])p.[moe]([m5C])p.[moe](A)p.d(T)[sp].d(T)[sp].d(A)[sp].d(T)[sp].d(T)[sp].d(T)[sp].d([m5C])[sp].d(T)[sp].d(T)[sp].d([m5C])[sp].[moe](A)p.[moe]([m5C])p.[moe](G)[sp].[moe](T)}$$$$ (last 3' nucleoside missing)” gave a 3 h FOB score of 1 score 0-7.
In the case of “RNA1{[moe]([m5C])[sp].[moe](T)p.[moe]([m5C])p.[moe]([m5C])p.[moe](T)[sp].d(A)[sp].d(T)[sp].d([m5C])[sp].d(A)[sp].d(T)[sp].d([m5C])[sp].d(A)[sp].d(T)[sp].[moe](T)p.[moe](T)p.[moe](T)[sp].[moe]([m5C])}$$$$ (last 3' nucleoside missing)”, the 3 h FOB score is reported as 0 score 0-7.
In the case of “RNA1{[moe]([m5C])[sp].[moe](T)p.[moe]([m5C])p.[moe]([m5C])p.[moe](T)p.d(A)[sp].d(T)[sp].d([m5C])[sp].d(A)[sp].d(T)[sp].d([m5C])[sp].d(A)[sp].d(T)[sp].d(T)[sp].d(T)[sp].[moe](T)p.[moe]([m5C])p.[moe]([m5C])[sp].[moe](A)}$$$$ (last 3' nucleoside missing)”, the 3 h FOB score is reported as 1 score 0-7.
With “RNA1{[moe]([m5C])[sp].[moe]([m5C])[sp].[moe]([m5C])[sp].[moe](A)[sp].[moe](A)[sp].d(A)[sp].d(G)[sp].d(G)[sp].d(G)[sp].d(T)[sp].d(T)[sp].d(A)[sp].d(A)[sp].d(T)[sp].d(T)[sp].[moe](A)[sp].[moe](G)[sp].[moe](G)[sp].[moe](A)}$$$$ (last 3' nucleoside missing)” the 3 h FOB score was 7 score 0-7.
Work on “RNA1{[moe]([m5C])[sp].[moe]([m5C])[sp].[moe]([m5C])[sp].[moe](A)[sp].[moe](T)[sp].d(A)[sp].d([m5C])[sp].d(G)[sp].d([m5C])[sp].d(G)[sp].d(G)[sp].d(T)[sp].d(G)[sp].d(A)[sp].d(A)[sp].[moe](T)[sp].[moe](T)[sp].[moe]([m5C])[sp].[moe](T)}$$$$ (last 3' nucleoside missing)” yielded a 3 h FOB score of 7 score 0-7.
Work on “RNA1{[moe]([m5C])[sp].[moe]([m5C])p.[moe](A)p.[moe](G)p.[moe](A)p.d(A)[sp].d(A)[sp].d(T)[sp].d([m5C])[sp].d(T)[sp].d(G)[sp].d(T)[sp].d(A)[sp].d(A)[sp].d(A)[sp].[moe](T)p.[moe](T)p.[moe]([m5C])[sp].[moe](T)}$$$$ (last 3' nucleoside missing)” yielded a 3 h FOB score of 3 score 0-7.
Substance “RNA1{[moe]([m5C])[sp].[moe]([m5C])p.[moe](A)p.[moe](T)p.[moe](A)p.d(A)[sp].d(T)[sp].d([m5C])[sp].d(T)[sp].d([m5C])[sp].d(A)[sp].d(T)[sp].d(T)[sp].d([m5C])[sp].d(T)[sp].[moe]([m5C])p.[moe](A)p.[moe](T)[sp].[moe](A)}$$$$ (last 3' nucleoside missing)” has a 3 h FOB score of 2.25 score 0-7.
With “RNA1{[moe]([m5C])[sp].[moe]([m5C])p.[moe](A)p.[moe](T)p.[moe](A)p.d([m5C])[sp].d(G)[sp].d([m5C])[sp].d(G)[sp].d(G)[sp].d(T)[sp].d(G)[sp].d(A)[sp].d(A)[sp].d(T)[sp].[moe](T)p.[moe]([m5C])p.[moe](T)[sp].[moe](G)}$$$$ (last 3' nucleoside missing)” the 3 h FOB score was 4.5 score 0-7.
In the case of “RNA1{[moe]([m5C])[sp].[moe]([m5C])p.[moe](G)p.[moe](G)p.[moe](A)p.d(T)[sp].d(T)[sp].d(G)[sp].d(T)[sp].d(T)[sp].d(T)[sp].d(T)[sp].d([m5C])[sp].d(T)[sp].d(T)[sp].[moe]([m5C])p.[moe](A)p.[moe](T)[sp].[moe](T)}$$$$ (last 3' nucleoside missing)”, the 3 h FOB score is reported as 1 score 0-7.
“RNA1{[moe]([m5C])[sp].[moe]([m5C])p.[moe](T)p.[moe](A)p.[moe](T)[sp].d([m5C])[sp].d(A)[sp].d(T)[sp].d([m5C])[sp].d(A)[sp].d(T)[sp].d(T)[sp].d(T)[sp].[moe](T)p.[moe]([m5C])p.[moe]([m5C])[sp].[moe](A)}$$$$ (last 3' nucleoside missing)” showed a 3 h FOB score of 1 score 0-7.
“RNA1{[moe]([m5C])[sp].[moe]([m5C])p.[moe](T)p.[moe](A)p.[moe](T)p.[moe]([m5C])p.d(A)[sp].d(T)[sp].d([m5C])[sp].d(A)[sp].d(T)[sp].d(T)[sp].d(T)[sp].d(T)[sp].d([m5C])[sp].d([m5C])[sp].[moe](A)p.[moe](G)[sp].[moe](G)}$$$$ (last 3' nucleoside missing)” showed a 3 h FOB score of 1.25 score 0-7.
“RNA1{[moe]([m5C])[sp].[moe]([m5C])p.[moe](T)p.[moe](A)p.[moe](T)p.d([m5C])[sp].d(A)[sp].d(T)[sp].d([m5C])[sp].d(A)[sp].d(T)[sp].d(T)[sp].d(T)[sp].d(T)[sp].d([m5C])[sp].[moe]([m5C])p.[moe](A)p.[moe](G)[sp].[moe](G)}$$$$ (last 3' nucleoside missing)” showed a 3 h FOB score of 5.5 score 0-7.
Work on “RNA1{[moe]([m5C])[sp].[moe]([m5C])p.[moe](T)p.[moe](A)p.d(T)[sp].d([m5C])[sp].d(A)[sp].d(T)[sp].d([m5C])[sp].d(A)[sp].d(T)[sp].d(T)[sp].d(T)[sp].d(T)[sp].[moe]([m5C])p.[moe]([m5C])p.[moe](A)p.[moe](G)[sp].[moe](G)}$$$$ (last 3' nucleoside missing)” yielded a 3 h FOB score of 1.75 score 0-7.
“RNA1{[moe]([m5C])[sp].[moe]([m5C])p.[moe]([m5C])p.[moe](A)p.[moe](A)p.d(A)[sp].d(G)[sp].d(G)[sp].d(G)[sp].d(T)[sp].d(T)[sp].d(A)[sp].d(A)[sp].d(T)[sp].d(T)[sp].[moe](A)p.[moe](G)p.[moe](G)[sp].[moe](A)}$$$$ (last 3' nucleoside missing)” was tested, and the 3 h FOB score was 1 score 0-7.
